Experimental data published in PubChem BioAssay (NCI).
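Dose response: 5 concentrations. Exposure: 48 h. Format: 96-well plates. Endpoint: linear interpolation; highest concentration if not reached. GI50 is the concentration that inhibits growth by half. TGI marks complete inhibition of growth.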

Tests used:
Assay in all cases: NCI tumour cell line growth inhibition, 48 h; in the data active = GI50 below about 0.43 µM; inactive = the rest
786-0 renal = test system: 786-0 renal
A498 renal = test system: A498 renal
A549 NSCLC = test system: A549 NSCLC
ACHN renal = test system: ACHN renal
CAKI-1 renal = test system: CAKI-1 renal
CCRF-CEM leukemia = test system: CCRF-CEM leukemia
COLO 205 colon = test system: COLO 205 colon
DLD-1 colon = test system: DLD-1 colon
DMS 114 small cell lung = test system: DMS 114 small cell lung
DMS 273 small cell lung = test system: DMS 273 small cell lung
EKVX NSCLC = test system: EKVX NSCLC
HCC-2998 colon = test system: HCC-2998 colon
HCT-116 colon = test system: HCT-116 colon
HCT-15 colon = test system: HCT-15 colon
HL-60(TB) leukemia = test system: HL-60(TB) leukemia
HOP-18 NSCLC = test system: HOP-18 NSCLC
HOP-92 NSCLC = test system: HOP-92 NSCLC
HT29 colon = test system: HT29 colon
IGROV1 ovarian = test system: IGROV1 ovarian
K-562 leukemia = test system: K-562 leukemia
KM12 colon = test system: KM12 colon
KM20L2 colon = test system: KM20L2 colon
LXFL 529 NSCLC = test system: LXFL 529 NSCLC
M14 melanoma = test system: M14 melanoma
M19-MEL melanoma = test system: M19-MEL melanoma
MALME-3M melanoma = test system: MALME-3M melanoma
MOLT-4 leukemia = test system: MOLT-4 leukemia
NCI-H226 lung = test system: NCI-H226 lung
NCI-H23 lung = test system: NCI-H23 lung
NCI-H460 lung = test system: NCI-H460 lung
NCI-H522 lung = test system: NCI-H522 lung
OVCAR-3 ovarian = test system: OVCAR-3 ovarian
OVCAR-4 ovarian = test system: OVCAR-4 ovarian
OVCAR-8 ovarian = test system: OVCAR-8 ovarian
RPMI-8226 leukemia = test system: RPMI-8226 leukemia
RXF 393 renal = test system: RXF 393 renal
SF-268 CNS = test system: SF-268 CNS
SF-295 CNS = test system: SF-295 CNS
SF-539 CNS = test system: SF-539 CNS
SK-MEL-2 melanoma = test system: SK-MEL-2 melanoma
SK-MEL-28 melanoma = test system: SK-MEL-28 melanoma
SK-MEL-5 melanoma = test system: SK-MEL-5 melanoma
SK-OV-3 ovarian = test system: SK-OV-3 ovarian
SN12C renal = test system: SN12C renal
SNB-19 CNS = test system: SNB-19 CNS
SNB-75 CNS = test system: SNB-75 CNS
SR leukemia = test system: SR leukemia
SW-620 colon = test system: SW-620 colon
TK-10 renal = test system: TK-10 renal
U251 CNS = test system: U251 CNS
UO-31 renal = test system: UO-31 renal
XF 498 CNS = test system: XF 498 CNS
LOX IMVI melanoma = test system: LOX IMVI melanoma
OVCAR-5 ovarian = test system: OVCAR-5 ovarian
UACC-257 melanoma = test system: UACC-257 melanoma
UACC-62 melanoma = test system: UACC-62 melanoma

CN(C)N=Nc1ccccc1
> 100 µM: TGI (786-0 renal) | TGI (A498 renal) | TGI (A549 NSCLC) | TGI (ACHN renal) | TGI (CAKI-1 renal) | TGI (CCRF-CEM leukemia) | TGI (COLO 205 colon) | TGI (DLD-1 colon) | TGI (DMS 114 small cell lung) | TGI (DMS 273 small cell lung) | TGI (EKVX NSCLC) | TGI (HCC-2998 colon) | TGI (HCT-116 colon) | TGI (HCT-15 colon) | TGI (HL-60(TB) leukemia) | TGI (HOP-18 NSCLC) | TGI (HOP-92 NSCLC) | TGI (HT29 colon) | TGI (IGROV1 ovarian) | TGI (K-562 leukemia) | TGI (KM12 colon) | TGI (KM20L2 colon) | TGI (LXFL 529 NSCLC) | TGI (M14 melanoma) | TGI (M19-MEL melanoma) | TGI (MALME-3M melanoma) | TGI (MOLT-4 leukemia) | TGI (NCI-H226 lung) | TGI (NCI-H23 lung) | TGI (NCI-H460 lung) | TGI (NCI-H522 lung) | TGI (OVCAR-3 ovarian) | TGI (OVCAR-4 ovarian) | TGI (OVCAR-8 ovarian) | TGI (RPMI-8226 leukemia) | TGI (RXF 393 renal) | TGI (SF-268 CNS) | TGI (SF-295 CNS) | TGI (SF-539 CNS) | TGI (SK-MEL-2 melanoma) | TGI (SK-MEL-28 melanoma) | TGI (SK-MEL-5 melanoma) | TGI (SK-OV-3 ovarian) | TGI (SN12C renal) | TGI (SNB-19 CNS) | TGI (SNB-75 CNS) | TGI (SR leukemia) | TGI (SW-620 colon) | TGI (TK-10 renal) | TGI (U251 CNS) | TGI (UO-31 renal) | TGI (XF 498 CNS)

CC(=O)[CH-]C(C)=O.CC(=O)[CH-]C(C)=O.CC(=O)[CH-]C(C)=O.[In+3]
inactive: GI50 (786-0 renal) > 100 µM | GI50 (A498 renal) > 100 µM | GI50 (A549 NSCLC) > 100 µM | GI50 (ACHN renal) > 100 µM | GI50 (CAKI-1 renal) > 100 µM | GI50 (CCRF-CEM leukemia) > 100 µM | GI50 (COLO 205 colon) > 100 µM | GI50 (DLD-1 colon) > 100 µM | GI50 (DMS 114 small cell lung) > 100 µM | GI50 (DMS 273 small cell lung) > 100 µM | GI50 (HCT-116 colon) > 100 µM | GI50 (HL-60(TB) leukemia) > 100 µM | GI50 (HOP-18 NSCLC) 52.4 µM | GI50 (HOP-92 NSCLC) > 100 µM | GI50 (HT29 colon) > 100 µM | GI50 (IGROV1 ovarian) > 100 µM | GI50 (K-562 leukemia) > 100 µM | GI50 (KM12 colon) > 100 µM | GI50 (KM20L2 colon) > 100 µM | GI50 (LOX IMVI melanoma) > 100 µM | GI50 (LXFL 529 NSCLC) > 100 µM | GI50 (M14 melanoma) > 100 µM | GI50 (MALME-3M melanoma) > 100 µM | GI50 (MOLT-4 leukemia) > 100 µM | GI50 (NCI-H226 lung) > 100 µM | GI50 (NCI-H23 lung) > 100 µM | GI50 (NCI-H460 lung) > 100 µM | GI50 (NCI-H522 lung) > 100 µM | GI50 (OVCAR-3 ovarian) > 100 µM | GI50 (OVCAR-4 ovarian) > 100 µM | GI50 (OVCAR-5 ovarian) > 100 µM | GI50 (OVCAR-8 ovarian) > 100 µM | GI50 (RPMI-8226 leukemia) > 100 µM | GI50 (RXF 393 renal) > 100 µM | GI50 (SF-268 CNS) > 100 µM | GI50 (SF-295 CNS) > 100 µM | GI50 (SF-539 CNS) > 100 µM | GI50 (SK-MEL-2 melanoma) > 100 µM | GI50 (SK-MEL-28 melanoma) > 100 µM | GI50 (SK-MEL-5 melanoma) > 100 µM | GI50 (SK-OV-3 ovarian) > 100 µM | GI50 (SN12C renal) > 100 µM | GI50 (SNB-19 CNS) > 100 µM | GI50 (SNB-75 CNS) > 100 µM | GI50 (SR leukemia) > 100 µM | GI50 (SW-620 colon) > 100 µM | GI50 (TK-10 renal) > 100 µM | GI50 (U251 CNS) > 100 µM | GI50 (UACC-257 melanoma) > 100 µM | GI50 (UACC-62 melanoma) > 100 µM | GI50 (UO-31 renal) > 100 µM | GI50 (XF 498 CNS) > 100 µM
> 100 µM: TGI (786-0 renal) | TGI (A498 renal) | TGI (A549 NSCLC) | TGI (ACHN renal) | TGI (CAKI-1 renal) | TGI (CCRF-CEM leukemia) | TGI (COLO 205 colon) | TGI (DLD-1 colon) | TGI (DMS 114 small cell lung) | TGI (DMS 273 small cell lung) | TGI (HCT-116 colon) | TGI (HL-60(TB) leukemia) | TGI (HOP-18 NSCLC) | TGI (HOP-92 NSCLC) | TGI (HT29 colon) | TGI (IGROV1 ovarian) | TGI (K-562 leukemia) | TGI (KM12 colon) | TGI (KM20L2 colon) | TGI (LOX IMVI melanoma) | TGI (LXFL 529 NSCLC) | TGI (M14 melanoma) | TGI (MALME-3M melanoma) | TGI (MOLT-4 leukemia) | TGI (NCI-H226 lung) | TGI (NCI-H23 lung) | TGI (NCI-H460 lung) | TGI (NCI-H522 lung) | TGI (OVCAR-3 ovarian) | TGI (OVCAR-4 ovarian) | TGI (OVCAR-5 ovarian) | TGI (OVCAR-8 ovarian) | TGI (RPMI-8226 leukemia) | TGI (RXF 393 renal) | TGI (SF-268 CNS) | TGI (SF-295 CNS) | TGI (SF-539 CNS) | TGI (SK-MEL-2 melanoma) | TGI (SK-MEL-28 melanoma) | TGI (SK-MEL-5 melanoma) | TGI (SK-OV-3 ovarian) | TGI (SN12C renal) | TGI (SNB-19 CNS) | TGI (SNB-75 CNS) | TGI (SR leukemia) | TGI (SW-620 colon) | TGI (TK-10 renal) | TGI (U251 CNS) | TGI (UACC-257 melanoma) | TGI (UACC-62 melanoma) | TGI (UO-31 renal) | TGI (XF 498 CNS)
